Molecular target: T1, penicillin acylase (PA) from Escherichia coli (Escherichia coli, UniProt P06875)
T1 construct: gene pac; mature alpha/beta heterodimer processed from one precursor; recombinant from plasmid pEC in E. coli, purified
Test: initial rate hydrolysis, enantioselectivity from kcat/Km ratio
Assay type: biochemical

T1 sequence (P06875 27-235): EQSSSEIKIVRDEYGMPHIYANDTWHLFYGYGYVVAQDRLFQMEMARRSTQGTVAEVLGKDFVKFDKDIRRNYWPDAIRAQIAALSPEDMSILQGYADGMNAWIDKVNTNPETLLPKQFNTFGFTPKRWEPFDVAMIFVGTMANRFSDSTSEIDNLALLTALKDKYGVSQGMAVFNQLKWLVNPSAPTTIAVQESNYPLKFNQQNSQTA
T1 sequence (P06875 290-846): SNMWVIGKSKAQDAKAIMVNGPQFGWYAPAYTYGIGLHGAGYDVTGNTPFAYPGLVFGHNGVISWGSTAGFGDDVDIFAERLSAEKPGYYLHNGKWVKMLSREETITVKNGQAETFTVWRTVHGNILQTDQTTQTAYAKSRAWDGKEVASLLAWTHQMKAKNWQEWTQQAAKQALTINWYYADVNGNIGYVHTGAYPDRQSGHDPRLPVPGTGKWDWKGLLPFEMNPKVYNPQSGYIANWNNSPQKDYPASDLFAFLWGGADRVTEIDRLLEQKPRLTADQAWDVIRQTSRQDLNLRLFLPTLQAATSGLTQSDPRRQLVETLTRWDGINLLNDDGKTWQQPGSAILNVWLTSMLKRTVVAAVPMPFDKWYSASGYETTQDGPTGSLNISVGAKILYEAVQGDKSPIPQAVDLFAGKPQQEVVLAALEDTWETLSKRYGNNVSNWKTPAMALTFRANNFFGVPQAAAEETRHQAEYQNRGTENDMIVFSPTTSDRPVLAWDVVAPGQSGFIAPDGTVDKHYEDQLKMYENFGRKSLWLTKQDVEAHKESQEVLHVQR

O=C(Cc1ccccc1)N[C@H](C(=O)O)c1ccccc1 [N-phenylacetyl-L-phenylglycine]
initial rate hydrolysis, enantioselectivity from kcat/Km ratio: WT PA exhibits already a very good chiral discrimination of N-phenylacetyl-phenylglycine enantiomers

Source: article PMC3347531, “Mutation of Residue βF71 of Escherichia coli Penicillin Acylase Results in Enhanced Enantioselectivity and Improved Catalytic Properties” (Acta Naturae, 2009)
